Legend:
Type in all cases: cell-based
GSPT1 (eRF3a) [1] = biological target: T1, GSPT1 (eRF3a) (Homo sapiens, UniProt P15170+Q96SW2); experiment: Western blot assay in HepG2 cells: GSPT1 (eRF3a); conditions: different concentrations at 24 h (FIG. 10)
T1 construct: The downregulation of SRD5A3 and GSPT1 (eRF3a) proteins in PC-3 and HepG2 cells by C59; endogenous in cells; host or cells: 22Rv1, PC-3, HepG2
Source text: (§1) Example 84: Western Blot Assay of Compound C59 in 22Rv1, PC-3, and HepG2 Cells
(§2) (1) Materials: 22Rv1, PC-3, and HepG2 cell, anti-SRD5A1 antibody (ab167606), anti-SRD5A2 antibody (ab124877), anti-SRD5A3 antibody (PA5-107029), anti-androgen receptor (AR) antibody (CST, No. 5153), anti-GSPT1 antibody (Abcam, ab234433), anti-GADPH antibody (CST, No. 5174), anti-c-Myc antibody (CST, No. 8583), anti-α-tublin antibody (CST, No. 2125), anti-rabbit IgG, HRP-linked antibody (CST, No. 7074), electrophoresis device and membrane transfer device (LIUYI, BEIJING; DYCZ-24DN)
(§3) Cell seeding: 22Rv1 (Cell Bank of the Chinese Academy of Sciences, TCHu100), PC-3 (Cell Bank of the Chinese Academy of Sciences, SCSP-532) and HepG2 cells (Cell Bank of the Chinese Academy of Sciences, TCHu72) were subcultured and trypsinized to prepare 6×10^5 cells/mL suspensions, seeded on 6-well plates (3 mL/well), and cultured overnight in a cell incubator at 5% CO2 and 37° C. […]
(§4) Protein quantification: The protein was quantified using a BCA protein quantification kit. […]
(§5) Western immunoblot assay (or Western blot, WB): SDS-PAGE gel at a proper concentration was prepared according to the molecular weight of the target protein: for example, the concentration of the separation gel was 8% and the concentration of the stacking gel was 5%. The loading volume was adjusted according to the protein quantification results. […]

GSPT1 (eRF3a) [2] = biological target: T1, GSPT1 (eRF3a); experiment: Western blot assay in PC-3 cells: GSPT1 (eRF3a); conditions: different concentrations at 24 h (FIG. 9)
Source text: as §1, §2, §3, §4, §5

BT-549 cells = experiment: Anti-proliferative toxicity of C63 in tumor cell lines (CCK8): BT-549; conditions: Homo sapiens, 72 h, 3 days, read-out: Inhibition rate
Procedure: (§6) Example 83: Detection of Anti-Proliferative Toxicity of C63 in Some Tumor Cell Lines
BT-549 cells (purchased from the Cell Bank of the Chinese Academy of Sciences, Cat. No. TCHu93) were subcultured in a culture medium (RPMI-1640 medium+1% penicillin-streptomycin dual-antibiotic solution++10% fetal bovine serum+0.01 mg/mL recombinant human insulin) in an incubator at 5% carbon dioxide and 37° C.
BT-549 cells were seeded at 5000 cells/well (90 μL) on a 96-well plate and cultured for 24 h.
(§7) 10 mM compound stock solutions were prepared in DMSO.
(§8) The compound stock solution was diluted with DMSO to give DMSO solutions 1-9 at concentrations of 0 μM, 2500 μM, 500 μM, 100 μM, 20 μM, 4 μM, 0.8 μM, 0.16 μM, and 0.032 μM.
(§9) 2 μL of each of solutions 1-9 was added to 98 μL of the medium to give mixed solutions 11-19 of the compound and the medium.
(§10) 10 μL of each of solutions 11-19 was added to the above cell seed solution to give a total volume of 100 μL (90 μL+10 μL).
(§11) The concentrations of the compound in the wells were 0 μM, 5.0 μM, 1.0 μM, 0.2 μM, 0.04 μM, 0.008 μM, 0.0016 μM, 0.00032 μM, and 0.000064 μM. All concentrations were in triplicate.
(§12) After the above-treated cells were cultured for 3 days, 10 μL of the CCK8 solution (DOJINDO, Cat. No. PF725) was added to each well. The plate was incubated in an incubator at 37° C. for 1-4 h and then detected on a microplate reader for the reading at 450 nm.

Hep G2 cells = experiment: Anti-proliferative toxicity of C63 in tumor cell lines (CCK8): Hep G2; conditions: Homo sapiens, HepG2, 72 h, 3 days, read-out: Inhibition rate
Procedure: as §6
HepG2 cells (purchased from the Cell Bank of the Chinese Academy of Sciences, Cat. No. TCHu72) were subcultured in a culture medium (MEM medium+1% penicillin-streptomycin dual-antibiotic solution+10% fetal bovine serum) in an incubator at 5% carbon dioxide and 37° C.
Hep G2 cells were seeded at 2000 cells/well (90 μL) on a 96-well plate and cultured for 24 h.
as §7, §8, §9, §10, §11, §12

T1 sequence (P15170 1-637 isoform P15170-3): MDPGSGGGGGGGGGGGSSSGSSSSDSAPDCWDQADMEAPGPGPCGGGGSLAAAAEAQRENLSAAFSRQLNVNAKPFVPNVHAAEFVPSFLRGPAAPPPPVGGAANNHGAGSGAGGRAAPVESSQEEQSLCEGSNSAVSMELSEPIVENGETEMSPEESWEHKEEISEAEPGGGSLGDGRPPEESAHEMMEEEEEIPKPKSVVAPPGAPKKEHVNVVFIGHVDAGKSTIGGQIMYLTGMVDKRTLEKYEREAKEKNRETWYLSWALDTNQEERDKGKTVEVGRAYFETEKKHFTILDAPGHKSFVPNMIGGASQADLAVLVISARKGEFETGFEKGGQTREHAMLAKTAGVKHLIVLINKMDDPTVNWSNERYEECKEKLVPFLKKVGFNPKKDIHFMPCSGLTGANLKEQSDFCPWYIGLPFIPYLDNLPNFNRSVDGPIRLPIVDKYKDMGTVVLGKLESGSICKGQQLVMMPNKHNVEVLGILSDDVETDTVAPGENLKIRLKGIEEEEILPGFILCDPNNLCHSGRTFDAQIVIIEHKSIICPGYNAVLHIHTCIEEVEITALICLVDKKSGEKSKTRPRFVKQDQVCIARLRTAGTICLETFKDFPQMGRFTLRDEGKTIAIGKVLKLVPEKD
T1 sequence (Q96SW2 whole entry): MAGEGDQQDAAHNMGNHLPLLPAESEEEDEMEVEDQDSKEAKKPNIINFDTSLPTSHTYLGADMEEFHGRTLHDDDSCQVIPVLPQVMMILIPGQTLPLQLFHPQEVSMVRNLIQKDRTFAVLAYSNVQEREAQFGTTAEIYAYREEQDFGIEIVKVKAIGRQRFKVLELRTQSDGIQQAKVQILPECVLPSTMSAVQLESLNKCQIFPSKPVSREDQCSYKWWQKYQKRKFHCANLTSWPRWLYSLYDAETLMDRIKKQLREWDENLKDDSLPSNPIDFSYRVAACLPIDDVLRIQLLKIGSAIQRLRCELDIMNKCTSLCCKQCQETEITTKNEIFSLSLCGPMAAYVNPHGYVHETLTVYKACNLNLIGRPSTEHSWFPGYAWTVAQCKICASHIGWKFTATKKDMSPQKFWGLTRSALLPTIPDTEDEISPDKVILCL
T1 sequence (Q16531 whole entry partner): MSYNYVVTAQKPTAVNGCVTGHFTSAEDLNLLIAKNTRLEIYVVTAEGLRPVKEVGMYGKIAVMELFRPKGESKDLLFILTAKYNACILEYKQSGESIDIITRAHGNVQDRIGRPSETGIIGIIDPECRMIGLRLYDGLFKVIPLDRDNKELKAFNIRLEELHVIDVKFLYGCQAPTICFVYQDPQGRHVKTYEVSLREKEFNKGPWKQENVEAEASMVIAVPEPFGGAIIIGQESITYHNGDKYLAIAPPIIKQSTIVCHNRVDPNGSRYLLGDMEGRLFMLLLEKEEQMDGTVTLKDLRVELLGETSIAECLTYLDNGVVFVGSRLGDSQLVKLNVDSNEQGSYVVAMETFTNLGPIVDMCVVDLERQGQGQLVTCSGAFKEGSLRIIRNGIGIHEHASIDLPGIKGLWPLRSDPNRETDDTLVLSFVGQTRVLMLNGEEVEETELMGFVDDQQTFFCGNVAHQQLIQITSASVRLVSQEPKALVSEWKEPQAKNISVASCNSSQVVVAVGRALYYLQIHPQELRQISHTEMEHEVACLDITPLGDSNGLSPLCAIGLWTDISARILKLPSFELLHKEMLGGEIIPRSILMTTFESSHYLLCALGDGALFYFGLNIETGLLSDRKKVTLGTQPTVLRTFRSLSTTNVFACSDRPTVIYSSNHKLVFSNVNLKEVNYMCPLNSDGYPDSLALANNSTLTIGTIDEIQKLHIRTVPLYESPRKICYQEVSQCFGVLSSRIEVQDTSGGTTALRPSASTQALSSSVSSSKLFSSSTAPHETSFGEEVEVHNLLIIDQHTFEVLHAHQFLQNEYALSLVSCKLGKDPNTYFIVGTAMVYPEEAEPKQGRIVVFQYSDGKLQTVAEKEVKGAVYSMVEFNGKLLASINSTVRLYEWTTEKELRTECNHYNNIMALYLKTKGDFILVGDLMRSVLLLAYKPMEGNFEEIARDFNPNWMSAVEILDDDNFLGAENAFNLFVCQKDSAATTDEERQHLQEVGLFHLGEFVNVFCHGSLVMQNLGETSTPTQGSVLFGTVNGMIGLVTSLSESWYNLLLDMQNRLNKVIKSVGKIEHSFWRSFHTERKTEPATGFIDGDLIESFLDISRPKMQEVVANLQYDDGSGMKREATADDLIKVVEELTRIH

downregulation of GSPT1 (eRF3a) protein (Western blot) (GSPT1 (eRF3a) [1]) | downregulation of GSPT1 (eRF3a) protein (Western blot) (GSPT1 (eRF3a) [2]) | Structure (SMILES) | inhibition at 64 pM (BT-549 cells; 0.000064 μM) [%] | inhibition at 0.00032 µM (BT-549 cells; 0.000320 μM) [%] | inhibition at 0.0016 µM (BT-549 cells; 0.001600 μM) [%] | inhibition at 0.008 µM (BT-549 cells; 0.008000 μM) [%] | inhibition at 0.04 µM (BT-549 cells; 0.040000 μM) [%] | inhibition at 0.2 µM (BT-549 cells; 0.200000 μM) [%] | inhibition at 1 µM (BT-549 cells; 1.000000 μM) [%] | inhibition at 5 µM (BT-549 cells; 5.000000 μM) [%] | inhibition at 64 pM (Hep G2 cells; 0.000064 μM) [%] | inhibition at 0.00032 µM (Hep G2 cells; 0.000320 μM) [%] | inhibition at 0.0016 µM (Hep G2 cells; 0.001600 μM) [%] | inhibition at 0.008 µM (Hep G2 cells; 0.008000 μM) [%] | inhibition at 0.04 µM (Hep G2 cells; 0.040000 μM) [%] | inhibition at 0.2 µM (Hep G2 cells; 0.200000 μM) [%] | inhibition at 1 µM (Hep G2 cells; 1.000000 μM) [%] | inhibition at 5 µM (Hep G2 cells; 5.000000 μM) [%]
downregulation | downregulation | C[C@]12C=CC(=O)N[C@@H]1CC[C@@H]1[C@@H]2CC[C@]2(C)[C@@H](C(=O)Nc3cccc(N[C@@H]4CCC[C@@H](Nc5cccc6c5C(=O)N(C5CCC(=O)NC5=O)C6=O)C4)c3)CC[C@@H]12 (stereo partly drawn) [C59, N-(3-(N—(N-(4-(2-(3-(2,6-dioxopiperidine))-isoindole-1,3-dione))-1R,3R-cyclohexanediamine))phenyl)-3-oxo-4-aza-5α-androst-1-ene-17β-carboxamide] |  |  |  |  |  |  |  |  |  |  |  |  |  |  |  | 
 |  | C[C@]12C=CC(=O)N[C@@H]1CC[C@@H]1[C@@H]2CC[C@]2(C)[C@@H](C(=O)Nc3cccc(N[C@@H]4CCC[C@@H](Nc5cccc6c5C(=O)N([C@H]5CCC(=O)NC5=O)C6=O)C4)c3)CC[C@@H]12 [C63, N-(3-(N—(N-(4-(2-(3S-(2,6-dioxopiperidine))-isoindole-1,3-dione))-1R,3R-cyclohexanediamine))phenyl)-3-oxo-4-aza-5α-androst-1-ene-17β-carboxamide] | 29.3 | 28 | 77.5 | 84.3 | 84.6 | 85.6 | 84.3 | 87.5 | 1.97 | 14.1 | 66.9 | 79.3 | 87.1 | 87.3 | 85.7 | 81.1

From patent US20250213701A1, “MEDICAMENT FOR TREATING HUMAN TUMOR BASED ON ERF3A-TARGETING PROTEOLYSIS MECHANISM” (SUZHOU DEGEN BIO-MEDICAL CO., LTD., priority 2022, published 2025)
